Results published in patent US6339100B1, “Methods for inhibiting mastocytosis” (The Trustees of Columbia University in the City of New York, priority 1999, dated 2002).

Tests used:
wild-type KIT = assay: Phosphorylation of wild-type KIT expressed in COS cells (anti-phosphotyrosine blot); type: cell-based; conditions: 5 μM, 30 min, SCF 100 ng/ml 10 min
Protocol: (§1) FIG. 1: Effects of indolinone derivatives on phosphorylation of wild-type and mutant KITs. […] The compound with the structure VII or structure VI are effective against KIT containing an activating juxtamembrane domain mutation in C2 cells.
(§2) KIT activity was determined by in vitro phosphorylation, as previously described (Ma et al, 1999a). The neoplastic mast cell line C2 and P815 have been previously described (Dunn et al, 1957; Lazarus et al, 1986; DeVinney and Gold, 1990), and their activating c-KIT mutations characterized (Tsujimura et al, 1994; Ma et al, 1999a). To determine cell proliferation and viability, cells from triplicate cultures were stained with trypan blue and counted in a hemocytometer. All experiments were repeated at least three times.

[1] = tested on: KIT with juxtamembrane insertion mutation (C2 KIT); assay: Constitutive phosphorylation of mutant KIT in C2 dog mastocytoma cells; type: cell-based; conditions: 5 μM
Protocol: as §1, §2
The effects of these compounds on constitutive activation of KIT mutants expressed by neoplastic mast cells were then tested. For activating juxtamembrane mutations, the C2 dog mastocytoma cell line was studied (Lazarus et al, 1986; DeVinney and Gold, 1990), in which KIT is constitutively active due to a juxtamembrane insertion mutation (Ma et al, 1999a). […] The effects of these compounds on constitutive phosphorylation of KIT bearing in the juxtamembrane region either deletion of Trp556-Lys557 or substitution of Pro for Leu575, mutations previously identified in dog mastocytomas (Ma et al, 1999a) were also examined.

[2] = target: T1, KIT with substitution of Tyr for Asp814 (P815 KIT) (Mus musculus, UniProt P05532, D818Y); assay: Phosphorylation of mutant KIT in P815 cells; type: cell-based, murine; conditions: 40 μM, 30 min
T1 construct: mutant KITs expressed in C2 and P815 cells; endogenous in cells; host or cells: P815 murine mastocytoma cells
T1 sequence (P05532 25-975 isoform P05532-2 D814Y): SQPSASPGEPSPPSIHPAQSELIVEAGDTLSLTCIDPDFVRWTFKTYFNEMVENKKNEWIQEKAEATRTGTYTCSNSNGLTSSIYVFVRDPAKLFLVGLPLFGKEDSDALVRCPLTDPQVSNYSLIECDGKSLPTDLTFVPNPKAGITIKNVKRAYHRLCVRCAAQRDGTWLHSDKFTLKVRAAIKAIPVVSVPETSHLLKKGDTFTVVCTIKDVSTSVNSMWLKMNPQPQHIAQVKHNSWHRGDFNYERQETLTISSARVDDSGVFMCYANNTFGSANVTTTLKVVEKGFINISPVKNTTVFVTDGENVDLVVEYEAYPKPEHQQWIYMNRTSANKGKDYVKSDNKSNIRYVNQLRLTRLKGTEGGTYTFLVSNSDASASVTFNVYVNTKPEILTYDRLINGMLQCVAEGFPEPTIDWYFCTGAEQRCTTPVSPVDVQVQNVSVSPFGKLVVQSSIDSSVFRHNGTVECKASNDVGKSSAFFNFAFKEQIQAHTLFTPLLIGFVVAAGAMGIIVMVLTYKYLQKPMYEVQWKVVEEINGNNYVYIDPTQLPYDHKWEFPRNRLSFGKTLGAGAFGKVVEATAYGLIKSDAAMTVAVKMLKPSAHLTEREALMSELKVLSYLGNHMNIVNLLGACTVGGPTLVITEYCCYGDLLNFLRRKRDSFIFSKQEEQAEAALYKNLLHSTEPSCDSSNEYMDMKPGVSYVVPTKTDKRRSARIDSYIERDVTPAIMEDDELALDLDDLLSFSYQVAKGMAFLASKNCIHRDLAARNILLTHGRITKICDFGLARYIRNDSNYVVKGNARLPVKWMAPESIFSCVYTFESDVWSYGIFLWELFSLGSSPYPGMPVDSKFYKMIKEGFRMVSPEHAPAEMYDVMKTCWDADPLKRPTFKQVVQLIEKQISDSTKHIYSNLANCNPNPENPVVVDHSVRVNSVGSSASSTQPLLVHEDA
Protocol: as §1, §2
For activating mutations in the kinase domain, the P815 murine mast cell tumor line (Dunn et al, 1957) was examined. P815 c-KIT contains a point mutation resulting in substitution of Tyr for Asp814, the equivalent position of human Asp816, which causes constitutive receptor activation (Tsujimura et al, 1994).

C2 cells = assay: C2 cell proliferation and viability (trypan blue counting); type: cell-based, dog; conditions: treated daily with 1 μM
Protocol: (§3) FIG. 2: Effects of indolinone derivatives on neoplastic mast cell growth. […] Results (mean±SEM) represent averages of triplicate cultures.
as §2

P815 cells = assay: P815 cell proliferation and viability (trypan blue counting); type: cell-based, murine; conditions: treated daily with 10 μM
Protocol: as §3, §2

[3] = tested on: platelet-derived growth factor receptor; conditions: cited from earlier work
[4] = tested on: fibroblast growth factor receptor; conditions: cited from earlier work
insulin receptor = insulin receptor (Homo sapiens, UniProt P06213); conditions: cited from earlier work
Chain of insulin receptor (P06213 28-1382, species assumed): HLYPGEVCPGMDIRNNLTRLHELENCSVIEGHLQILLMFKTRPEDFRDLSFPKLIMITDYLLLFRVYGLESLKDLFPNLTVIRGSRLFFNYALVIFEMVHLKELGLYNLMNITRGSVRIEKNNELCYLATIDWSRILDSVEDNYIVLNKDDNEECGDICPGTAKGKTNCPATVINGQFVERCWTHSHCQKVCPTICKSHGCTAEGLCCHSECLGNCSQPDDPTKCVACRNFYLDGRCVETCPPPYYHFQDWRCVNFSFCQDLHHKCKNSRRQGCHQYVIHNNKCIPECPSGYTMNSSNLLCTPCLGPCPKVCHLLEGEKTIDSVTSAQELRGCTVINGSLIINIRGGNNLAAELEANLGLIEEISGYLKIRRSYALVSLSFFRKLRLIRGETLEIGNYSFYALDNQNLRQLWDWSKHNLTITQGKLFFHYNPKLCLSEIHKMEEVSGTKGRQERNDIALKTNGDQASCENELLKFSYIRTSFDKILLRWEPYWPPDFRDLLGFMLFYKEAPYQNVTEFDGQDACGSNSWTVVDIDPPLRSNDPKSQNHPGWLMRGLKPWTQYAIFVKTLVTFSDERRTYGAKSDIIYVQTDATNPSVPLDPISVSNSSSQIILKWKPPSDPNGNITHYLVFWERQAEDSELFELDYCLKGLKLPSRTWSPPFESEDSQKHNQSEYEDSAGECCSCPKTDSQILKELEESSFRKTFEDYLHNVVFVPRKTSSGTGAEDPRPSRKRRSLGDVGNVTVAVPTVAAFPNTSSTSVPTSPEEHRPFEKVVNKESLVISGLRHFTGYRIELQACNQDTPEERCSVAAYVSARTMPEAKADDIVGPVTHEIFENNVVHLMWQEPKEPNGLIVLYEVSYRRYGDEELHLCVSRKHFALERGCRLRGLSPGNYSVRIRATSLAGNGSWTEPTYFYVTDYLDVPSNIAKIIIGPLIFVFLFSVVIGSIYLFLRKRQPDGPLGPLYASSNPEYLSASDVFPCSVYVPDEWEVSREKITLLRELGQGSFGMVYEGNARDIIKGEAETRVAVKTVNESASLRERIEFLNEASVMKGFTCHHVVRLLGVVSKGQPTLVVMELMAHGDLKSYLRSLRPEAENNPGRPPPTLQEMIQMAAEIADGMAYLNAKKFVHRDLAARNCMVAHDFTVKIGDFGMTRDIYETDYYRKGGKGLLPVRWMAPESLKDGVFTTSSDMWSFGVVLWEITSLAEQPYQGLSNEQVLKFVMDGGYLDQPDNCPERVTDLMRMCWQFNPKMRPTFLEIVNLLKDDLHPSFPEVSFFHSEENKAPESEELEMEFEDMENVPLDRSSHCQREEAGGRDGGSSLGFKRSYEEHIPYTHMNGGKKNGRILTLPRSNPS

For `O=CN1CCN(c2ccc(/C=C3/C(=O)Nc4ccccc43)cc2)CC1` [structure VII], the “effect on tyrosine phosphorylation of the wild-type receptor” value (wild-type KIT) was “substantially reduce”, the “reduction of the constitutive C2 KIT phosphorylation” value [1] was “approximately 50%” and the “inhibition of phosphorylation of the P815 KIT mutant” value [2] was “not effectively inhibiting”. For the same compound, the “effect on C2 cell proliferation” value (C2 cells) was “killed”, the “effect on P815 cell proliferation” value (P815 cells) was “killed” and the “inhibition of platelet-derived growth factor receptor” value [3] was “effective”. The “inhibition of fibroblast growth factor receptor” value [4] was “effective” and the “inhibition of insulin receptor” value (insulin receptor) was “effective”.
